Measured values as given in article PMC9607644, “Glycoconjugation of Quinoline Derivatives Using the C-6 Position in Sugars as a Strategy for Improving the Selectivity and Cytotoxicity of Functionalized Compounds” (Molecules, 2022).
Marks after values point to notes of the source that are not given here.

How the values were obtained:
[1] = test system: MCF-7 cells; assay: MTT cytotoxicity assay, MCF-7; type: cell-based, human; details: for IC50: Homo sapiens, MCF7, incubation time 72 h; for IC50 / growth inhibitory activity in words, MCF-7: MTT; for Selectivity Index (SI) MCF-7: IC50 NHDF-Neo / IC50 MCF-7, 72 h incubation
Description: (§1) An in vitro biological test package was performed for the obtained derivatives. […] The MTT test is a colorimetric method for detecting proliferating cells. It is based on the ability of the enzyme mitochondrial dehydrogenase to convert yellow tetrazole salt (MTT) into purple formazan. The amount of the product formed in the reaction, determined spectrophotometrically, is proportional to the number of living cells.
(§2) The in vitro cytotoxicity of the test compounds was determined by the MTT (3-[4,5–dimethylthiazol-2-yl]-2,5-diphenyltetrazolium bromide) test (Sigma-Aldrich, Taufkirchen, Germany) according to the manufacturer’s protocol. At the beginning, for each cell line were determined the optimal seeding densities to ensure exponential growth throughout the experimental period. The confluent layer of cells were trypsinized, collected, and suspended in a growth medium. […] Then, the culture medium was replaced with solutions of different concentrations of test compounds in a fresh medium. Stock solutions of test compounds were prepared in DMSO and diluted to final concentrations with appropriate volumes of the growth medium directly before the experiment. Cells suspended in a medium supplemented with 0.5% DMSO (the amount of DMSO necessary to dissolve the highest dose of the respective sample) were used as a control of the experiment. […] The compound-treated cells were incubated for a further 24–72 h. […] After this time, the MTT dye was carefully removed, and the acquired formazan crystals were dissolved by DMSO (Chempur, Piekary Śląskie, Poland). The proliferation was evaluated by measuring the formazan product’s absorbance at a wavelength of 570 nm with a microplate spectrophotometer (Epoch, BioTek, Winooski, VT, USA). All experiments were conducted in triplicate with four technical repeats for each tested concentration. Results were expressed as the percentage change in the viability of the test cells relative to the untreated control cells and calculated as the inhibitory concentration (IC50). […] The results are expressed as the average value ± standard deviation (SD).

[2] = test system: HCT-116 cells; assay: MTT cytotoxicity assay, HCT-116; type: cell-based, human; details: for IC50: Homo sapiens, HCT-116; for IC50 / growth inhibitory activity in words, HCT-116: MTT
Description: as §1, §2

[3] = test system: NHDF-Neo cells; assay: MTT cytotoxicity assay, NHDF-Neo; type: cell-based; details: Homo sapiens, incubation time 72 h
Description: An in vitro biological test package was performed for the obtained derivatives. All newly synthesized compounds were assessed for their cytotoxic activity against human cell lines with increased GLUT expression: the colon cancer cell line (HCT-116) and the breast cancer cell line (MCF-7), as well as on normal human dermal fibroblasts cells (NHDF-Neo), using the MTT assay (3-(4,5-dimethylthiazol-2-yl)-2,5-diphenyltetrazolium bromide). The MTT test is a colorimetric method for detecting proliferating cells. It is based on the ability of the enzyme mitochondrial dehydrogenase to convert yellow tetrazole salt (MTT) into purple formazan. The amount of the product formed in the reaction, determined spectrophotometrically, is proportional to the number of living cells. The antiproliferative activity was expressed as the concentration that caused 50% inhibition of the growth of the population of cells treated with the test compounds relative to the control cells (inhibitory concentration activity—IC50). Table 1 and Table 2 summarize the IC50 values calculated for all tested compounds.
The in vitro cytotoxicity of the test compounds was determined by the MTT (3-[4,5–dimethylthiazol-2-yl]-2,5-diphenyltetrazolium bromide) test (Sigma-Aldrich, Taufkirchen, Germany) according to the manufacturer’s protocol. At the beginning, for each cell line were determined the optimal seeding densities to ensure exponential growth throughout the experimental period. The confluent layer of cells were trypsinized, collected, and suspended in a growth medium. The cell suspension were then seeded into 96-well plates at a density of 1 × 10^4 or 2 × 10^3 (HCT-116) or 5 × 10^3 (MCF-7, NHDF-Neo) per well and incubated for 24 h under standard conditions (5% CO2, 37 °C). Then, the culture medium was replaced with solutions of different concentrations of test compounds in a fresh medium. Stock solutions of test compounds were prepared in DMSO and diluted to final concentrations with appropriate volumes of the growth medium directly before the experiment. Cells suspended in a medium supplemented with 0.5% DMSO (the amount of DMSO necessary to dissolve the highest dose of the respective sample) were used as a control of the experiment. […] The compound-treated cells were incubated for a further 24–72 h. After that, the medium was removed and the MTT solution (50 µL, 0.5 mg/mL in PBS) was added into each well and incubated for another 3 h under standard conditions (5% CO2, 37 °C). After this time, the MTT dye was carefully removed, and the acquired formazan crystals were dissolved by DMSO (Chempur, Piekary Śląskie, Poland). The proliferation was evaluated by measuring the formazan product’s absorbance at a wavelength of 570 nm with a microplate spectrophotometer (Epoch, BioTek, Winooski, VT, USA). All experiments were conducted in triplicate with four technical repeats for each tested concentration. Results were expressed as the percentage change in the viability of the test cells relative to the untreated control cells and calculated as the inhibitory concentration (IC50). The IC50 values were defined as the drug concentration that was necessary to reduce cell proliferation to 50% of the untreated control and this parameter was calculated using CalcuSyn software (version 2.0, Biosoft, Cambridge, UK). The results are expressed as the average value ± standard deviation (SD).

[4] = IC50 NHDF-Neo / IC50 HCT-116, HCT-116 incubation time 24 h
[5] = IC50 NHDF-Neo / IC50 HCT-116, 72 h incubation

Compound | IC50 [1] [µM] | IC50 ([2]; incubation time 24 h) [µM] | further results
[N-]=[N+]=NC[C@H]1OC(O)[C@H](O)[C@@H](O)[C@@H]1O (stereo partly drawn) [Compound 6, 6-azido-6-deoxy-D-glucopyranose] | > 800 | > 800 | 
CC(=O)OC1O[C@H](Cn2cc(COc3cccc4cccnc34)nn2)[C@H](OC(C)=O)[C@H](OC(C)=O)[C@H]1OC(C)=O (stereo partly drawn) [Compound B-1] | 36.67 ± 0.03 | 75.1 ± 1.3 | Selectivity Index (SI) MCF-7 [1]: 2.22; IC50 [3]: 81.42 ± 0.52 µM; Selectivity Index (SI) HCT-116 [2, 4]: 1.08 ^b
OC1O[C@H](Cn2cc(COc3cccc4cccnc34)nn2)[C@H](O)[C@H](O)[C@H]1O (stereo partly drawn) [Compound B-2] | 156 ± 7.4 | 293 ± 8 | Selectivity Index (SI) MCF-7 [1]: 1.74; IC50 [3]: 271.6 ± 0.35 µM; Selectivity Index (SI) HCT-116 [2, 4]: 0.93 ^b
CC(=O)O[C@@H]1[C@@H](OC(C)=O)[C@@H](O[C@H]2O[C@H](Cn3cc(COc4cccc5cccnc45)nn3)[C@@H](OC(C)=O)[C@H](OC(C)=O)[C@H]2OC(C)=O)O[C@H](Cn2cc(COc3cccc4cccnc34)nn2)[C@H]1OC(C)=O [Compound D-1] | 30.7 ± 0.99 | 46.3 ± 3.12 | Selectivity Index (SI) MCF-7 [1]: 1.12; IC50 [3]: 34.5 ± 0.39 µM; IC50 ([2]; incubation time 72 h): 26.3 ± 0.72 µM; Selectivity Index (SI) HCT-116 [2, 5]: 1.31
[N-]=[N+]=NC[C@H]1OC(O)[C@H](O)[C@@H](O)[C@H]1O (stereo partly drawn) [Compound 11, 6-azido-6-deoxy-D-galactopyranose] | > 800 | > 800 | 
OCc1cn(C[C@H]2OC(O)[C@H](O)[C@@H](O)[C@@H]2O)nn1 (stereo partly drawn) [Compound 30] | > 800 | > 800 | 
CC(=O)OC1O[C@H](CN=[N+]=[N-])[C@H](OC(C)=O)[C@H](OC(C)=O)[C@H]1OC(C)=O (stereo partly drawn) [Compound 12, 1,2,3,4-tetra-O-acetyl-6-azido-6-deoxy-D-galactopyranose] | 641.2 ± 1.79 | > 800 | 
CC(=O)O[C@@H]1O[C@H](C(=O)NCc2cn(CCCOc3cccc4cccnc34)nn2)[C@@H](OC(C)=O)[C@H](OC(C)=O)[C@H]1OC(C)=O [Compound C-2] | 157 ± 7.86 | 94.2 ± 1.48 | Selectivity Index (SI) MCF-7 [1]: 2.03; growth inhibitory activity in words, MCF-7 [1]: did not show significant ability to inhibit cell growth; IC50 [3]: 318.5 ± 3.09 µM; IC50 ([2]; incubation time 72 h): 62.35 ± 0.32 µM; Selectivity Index (SI) HCT-116 [2, 5]: 5.11; growth inhibitory activity in words, HCT-116 [2]: did not show significant ability to inhibit cell growth
CC(=O)O[C@@H]1[C@@H](OC(C)=O)[C@@H](O[C@H]2O[C@H](CN=[N+]=[N-])[C@@H](OC(C)=O)[C@H](OC(C)=O)[C@H]2OC(C)=O)O[C@H](CN=[N+]=[N-])[C@H]1OC(C)=O [Compound 23, 2,3,4,2′,3′,4′-hexa-O-acetyl-6,6′-diazido-6,6′-dideoxy-D-trehalose] | > 800 | > 800 | melting point: 92 to 93 °C
OCc1cn(C[C@H]2OC(O)[C@H](O)[C@@H](O)[C@H]2O)nn1 (stereo partly drawn) [Compound 32] | > 800 | > 800 | 
CC(=O)OC1O[C@H](Cn2cc(CO)nn2)[C@H](OC(C)=O)[C@H](OC(C)=O)[C@H]1OC(C)=O (stereo partly drawn) [Compound 31] | > 800 | > 800 | 
O=C(NCc1cn(CCO)nn1)[C@H]1OC(O)[C@H](O)[C@@H](O)[C@@H]1O (stereo partly drawn) [Compound 34] | > 800 | > 800 | 
C#CCNC(=O)[C@H]1OC(O)[C@H](O)[C@@H](O)[C@@H]1O (stereo partly drawn) [Compound 16, N-(prop-2-yn-1-yl)-D-glucopyranuronic acid amide] | > 800 | > 800 | 
C#CCNC(=O)[C@H]1O[C@@H](OC(C)=O)[C@H](OC(C)=O)[C@@H](OC(C)=O)[C@@H]1OC(C)=O [Compound 15, 1,2,3,4-tetra-O-acetyl-N-(prop-2-yn-1-yl)-β-D-glucopyranuronic acid amide] | 714 ± 15.7 | 584 ± 9.39 | 
OCc1cn(C[C@H]2O[C@H](O[C@H]3O[C@H](Cn4cc(CO)nn4)[C@@H](O)[C@H](O)[C@H]3O)[C@H](O)[C@@H](O)[C@@H]2O)nn1 [Compound 36] | > 800 | > 800 | 
CC(=O)OC1O[C@H](C(=O)NCc2cn(CCO)nn2)[C@@H](OC(C)=O)[C@H](OC(C)=O)[C@H]1OC(C)=O (stereo partly drawn) [Compound 33] | > 800 | > 800 | 
[N-]=[N+]=NC[C@H]1O[C@H](O[C@H]2O[C@H](CN=[N+]=[N-])[C@@H](O)[C@H](O)[C@H]2O)[C@H](O)[C@@H](O)[C@@H]1O [Compound 20, 6,6′-diazido-6,6′-dideoxy-D-trehalose] | > 800 | > 800 | melting point: 118 °C
CC(=O)OC1O[C@H](Cn2cc(CO)nn2)[C@@H](OC(C)=O)[C@H](OC(C)=O)[C@H]1OC(C)=O (stereo partly drawn) [Compound 29] | > 800 | > 800 | 
CC(=O)OC1O[C@H](CN=[N+]=[N-])[C@@H](OC(C)=O)[C@H](OC(C)=O)[C@H]1OC(C)=O (stereo partly drawn) [Compound 5, 1,2,3,4-tetra-O-acetyl-6-azido-6-deoxy-D-glucopyranose] | 201 ± 2.09 | > 800 | 
O=C(NCc1cn(CCCOc2cccc3cccnc23)nn1)[C@H]1OC(O)[C@H](O)[C@@H](O)[C@@H]1O (stereo partly drawn) [Compound C-3] | 706.6 ± 2.87 | > 800 | growth inhibitory activity in words, MCF-7 [1]: inactive; IC50 [3]: > 800 µM; IC50 ([2]; incubation time 72 h): 767 ± 2.39 µM; growth inhibitory activity in words, HCT-116 [2]: inactive
CC(=O)O[C@@H]1[C@@H](OC(C)=O)[C@@H](O[C@H]2O[C@H](Cn3cc(CO)nn3)[C@@H](OC(C)=O)[C@H](OC(C)=O)[C@H]2OC(C)=O)O[C@H](Cn2cc(CO)nn2)[C@H]1OC(C)=O [Compound 35] | > 800 | > 800 | 
CC(=O)O[C@@H]1O[C@H](C(=O)NCc2cn(CCOc3cccc4cccnc34)nn2)[C@@H](OC(C)=O)[C@H](OC(C)=O)[C@H]1OC(C)=O [Compound C-1] | 224 ± 7.34 | 173 ± 6.68 | Selectivity Index (SI) MCF-7 [1]: 0.96; growth inhibitory activity in words, MCF-7 [1]: did not show significant ability to inhibit cell growth; IC50 [3]: 215 ± 3.1 µM; IC50 ([2]; incubation time 72 h): 81.5 ± 3.36 µM; Selectivity Index (SI) HCT-116 [2, 5]: 2.64; growth inhibitory activity in words, HCT-116 [2]: did not show significant ability to inhibit cell growth
